Results as given in US11400130B2, “Inhibitors for proliferating cell nuclear antigen and uses” (Purdue Research Foundation, priority 2015, dated 2022).
Peptide text beside a SMILES is read from it. * marks the point of attachment. 5FAM = O=C1OC2(c3ccc(O)cc3Oc3cc(O)ccc32)c2ccc(C(=O)*)cc21; Ahx = NCCCCCC(=O)O

Assays:
PCNA [1] = target: T1, PCNA (Homo sapiens, UniProt P12004); test: Fluorescence polarization binding assay (PCNA titration for affinity of FAM-PL); settings: fixed FAM-PL (5 nM), two-fold increasing recombinant His-tagged PCNA, non-linear regression; read-out: Kd of FAM-PL peptide for PCNA
T1 construct: made in house; host or cells: E. coli BL21 (DE3)
Procedure: After synthesis and purification, peptoids were screened in a fluorescence polarization (FP) assay to find ligands that disrupted the interaction between His-tagged PCNA and fluorescein-labeled Pogo Ligase peptide (FAM-PL) (Kontopidis, G., et al. Proc. Natl. Acad. Sci. U.S.A 2005, 102 (6), 1871-1876). In the design of the assay, conditions were adopted from Pedley et al., 2016, to improve the dynamic range between bound and unbound FAM-PL. While an acceptable Z-score was determined using the original 10 nM peptide and 100 nM PCNA (FIG. 4), an improved dynamic range was established by adjusting the ligand and receptor concentrations. […] Because more than 80% of the peptide was bound at a PCNA concentration of […] this protein-receptor concentration was selected for use in subsequent displacement assays. The inclusion of PCNA was included in the overall calculations of Ki values.
Fluorescence Polarization Binding Assay. […] Fluorescence polarization and resultant anisotropy were measured on a BioTek Synergy 4 Multi-Detection Microplate Reader using an excitation filter of 485 nm and an emission filter of 530 nm, each with a 20 nm band-pass. […]
FO values were analyzed using non-linear regression statistics in OriginPro 2015, representing them as the mean±standard error of the mean (Y), and plotting them as a function of the monomeric PCNA protein concentration (X). […]

PCNA [2] = target: T1, PCNA; test: Fluorescence polarization competition assay (displacement of FAM-PL from His-tagged PCNA); type: binding; settings: for Disruption of PCNA-PL peptide binding by individual fragments: individual peptoid fragments screened alone, dose response (FIG. 7); for Ki: calculated from IC50 using equation 5 (modified Cheng-Prusoff), 95% confidence interval around the mean; for IC50: disruption of PCNA / FAM-PL binding, values are 95% confidence interval around the mean
Procedure: The inclusion of PCNA was included in the overall calculations of Ki values.
Anisotropy was converted to fractional occupancy, and IC50 values were determined for each peptoid by performing non-linear regression fits of each dose response curve using equation 4. Inhibition constants (Ki values) were calculated from the resultant IC50 values using equation 5 (Table 2).
Fluorescence Polarization Competition Assay. […] The plate was allowed to incubate at room temperature in the dark for 30 minutes prior to fluorescent measurement. […] Anisotropy values were converted to fractional occupancy using equation 2, and IC50 values were calculated by fitting the data to equation 4:
[formula] wherein n is the Hill slope.

T1 sequence (P12004 with tags, fused parts or gaps): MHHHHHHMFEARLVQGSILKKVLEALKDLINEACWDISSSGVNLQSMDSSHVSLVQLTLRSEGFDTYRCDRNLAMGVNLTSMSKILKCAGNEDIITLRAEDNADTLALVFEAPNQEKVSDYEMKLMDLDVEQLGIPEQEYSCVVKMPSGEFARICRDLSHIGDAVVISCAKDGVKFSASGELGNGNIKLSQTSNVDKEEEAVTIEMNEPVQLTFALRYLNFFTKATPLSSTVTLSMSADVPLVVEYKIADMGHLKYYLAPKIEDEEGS

`CC[C@H](C)[C@H](NC(=O)[C@H](CCCCN)NC(=O)[C@H](CCCCN)NC(=O)[C@H](CCC(N)=O)NC(=O)[C@H](CC(C)C)NC(=O)[C@@H](NC(=O)[C@H](C)NC(=O)[C@H](CO)NC(=O)CCCCCNC(=O)c1ccc2c(c1)C(=O)OC21c2ccc(O)cc2Oc2cc(O)ccc21)C(C)C)C(=O)N[C@H](C(=O)N[C@@H](CC(=O)O)C(=O)N[C@@H](Cc1ccc(O)cc1)C(=O)N[C@@H](Cc1ccccc1)C(=O)N[C@@H](Cc1c[nH]cn1)C(=O)N1CCC[C@H]1C(=O)N[C@@H](CCCCN)C(=O)N[C@@H](CCCCN)C(N)=O)[C@@H](C)O` [FAM-PL] ({5FAM-Ahx}-SAVLQKKITDYFHPKK-NH2) showed a Kd (PCNA [1]) of 107 nM.

`CC(C)(C)[Si](C)(C)OCc1ccc(CN)cc1` [NBal] was tested, and the “Disruption of PCNA-PL peptide binding by individual fragments” value (shortened to “Disruption of PCNA-PL peptide binding”) (PCNA [2]) was “none of the fragments showed any evidence of inhibition”.

In the case of `CC(C)(C)OC(=O)c1ccc(CN)cc1` [NBza], the “Disruption of PCNA-PL peptide binding” value (PCNA [2]) is reported as “none of the fragments showed any evidence of inhibition”.

With `NCCO` [NEal, ethanol amine] the “Disruption of PCNA-PL peptide binding” value (PCNA [2]) was “none of the fragments showed any evidence of inhibition”.

Molecule `NCCCCNCC(=O)N(CC(=O)N(CC(N)=O)Cc1ccc(CN)cc1)Cc1ccc2c(c1)OCO2` [NLys-NPip-NMma] has a Ki (PCNA [2]) of 1240 ± 190 nM and an IC50 (PCNA [2]) of 12900 ± 1970 nM.

With `NCc1ccc(CNCC(=O)N(CC(=O)N(CC(N)=O)Cc2ccc(CO)cc2)Cc2ccc3c(c2)OCO3)cc1` [NMma-NPip-NBal] the Ki (PCNA [2]) was 1120 ± 245 nM and the IC50 (PCNA [2]) was 11700 ± 2550 nM.

Molecule `NCc1ccc(CN(CC(N)=O)C(=O)CN(CCO)C(=O)CN[C@H](CO)Cc2cc(I)c(Oc3ccc(O)cc3)c(I)c2)cc1` [T2AA-NEal-NMma] has a Ki (PCNA [2]) of 114 ± 23.1 nM and an IC50 (PCNA [2]) of 1180 ± 240 nM.
